Patent publication US20240251790A1 (priority 2021, published 2024)
Where “and” joins values, the source holds several entries; their conditions need not be identical. Equal values may be shown once. Read-outs that look alike come from different tables or passages of the source.

Assays:
Type in all cases: cell-based
[1] = test system: total microbial count (APC)
[2] = test system: all microbial populations tested (APC, ECC, YM); test: Micro tests on barley grains, all microbial populations tested (APC, ECC, YM)
Experimental: The treatment was performed at 20° C. as follows: 100 ml of PAA solution at 500 ppm (unadjusted or adjusted to pH=9.0) were applied to 10.0 g of wet barley grains. Solutions with the grains were then shaken for 30 seconds and then the acid solution was neutralized by addition of 0.5 g sodium thiosulfate. The solutions were then used to evaluate effect of PAA treatment on total microbial count (APC), coliforms (ECC), and yeast and mold (YM). Control samples were treated with DI water.
Each sample was diluted serially into Butterfield's phosphate buffer, and the dilutions were plated on Petrifilm™ (3M, Minneapolis, MN) plates specific for different types of microorganisms. The plates were incubated for 48 hours at 35° C. for APC, and for 5 days at 25° C. for YM. For ECC, the incubation was done at 35° C. for 24 hours, then coliforms were counted, and incubation continued for an additional 24 hours at 35° C. Grown colonies on plates were counted and expressed in CFU/10 g barley grains for each treatment. The tests were done in duplicates.

coliforms (ECC) = test system: coliforms (ECC)
[3] = test system: Fusarium graminearum 46779
[4] = steeped barley, 500 ppm PAA, pH = 9, 30 s
[5] = steeped barley, 500 ppm PAA, pH = 9.0, 30 seconds, 20° C.
[6] = steeped barley, 500 ppm PAA, pH = 9, 10 min
[7] = steeped barley, 500 ppm PAA, pH = 10.0, 5 s
[8] = steeped barley, 500 ppm PAA, pH = 10.0, 30 s
[9] = steeped barley, 500 ppm PAA, unadjusted (pH=3.1), 5 s
[10] = steeped barley, 500 ppm PAA, unadjusted (pH=3.1), 30 s
[11] = test on day 2, treated once, day 2 (after steeping), 500 ppm PAA, 2:1, 10 minutes, 20° C.
[12] = test on day 4, treated once, day 2, 500 ppm PAA, 10 minutes
[13] = test on day 4, treated twice, days 2 and 4, 500 ppm PAA, 10 min each
[14] = germinated barley treated before kilning, 500 ppm PAA, pH = 3, 30 s, testing after germination
[15] = germinated barley treated before kilning, 500 ppm PAA, pH = 3, 30 s, testing after kilning, * = complete kill
[16] = germinated barley treated before kilning, 500 ppm PAA, pH = 9, 30 s, testing after germination
[17] = germinated barley treated before kilning, 500 ppm PAA, pH = 9, 30 s, testing after kilning, * = complete kill
[18] = germinated barley, 500 ppm PAA, pH = 3.1, 30 seconds
[19] = germinated barley, 500 ppm PAA, pH = 9.0, 30 seconds
[20] = steeped barley, 500 ppm PAA, pH = 3.1 (unadjusted), 30 seconds, 20° C.
[21] = steeped barley, 500 ppm PAA, pH = 6.5, 5 s
[22] = steeped barley, 500 ppm PAA, pH = 6.5, 30 s
[23] = steeped barley, 500 ppm PAA, pH = 9, 5 s

CC(=O)OO [PAA, peracetic acid]
APC Log10 [1, 4]: 6.72 Log10 | APC Log10 Reduction [1, 4]: 1.75 Log10 | APC Log10 (CFU/10 g barley grains) [1, 5]: 7.34 Log10 | APC Log10 Reduction [1, 5]: 1.81 Log10 | APC Log10 [1, 6]: 6.25 Log10 | APC Log10 Reduction [1, 6]: 2.23 Log10 | APC Log10 [1, 7]: 8.28 Log10 | APC Log10 Reduction [1, 7]: 0.79 Log10 | APC Log10 [1, 8]: 7.35 Log10 | APC Log10 Reduction [1, 8]: 1.72 Log10 | APC Log10 [1, 9]: 8.19 Log10 | APC Log10 Reduction [1, 9]: 0.29 Log10 | APC Log10 [1, 10]: 6.54 Log10 | APC Log10 Reduction [1, 10]: 1.93 Log10 | APC Log10 [1, 11]: 3.84 Log10 | APC Log10 Reduction [1, 11]: 4.30 Log10 | APC Log10 [1, 12]: 6.72 Log10 | APC Log10 Reduction [1, 12]: 2.5 Log10 and 2.52 Log10 | APC Log10 [1, 13]: 5.78 Log10 | APC Log10 Reduction [1, 13]: 3.46 Log10 | reduction of all microorganisms ([2]; germinated barley, unadjusted PAA 500 ppm, 30 seconds (Example 2)): 1-2 Log10 | reduction ([2]; steeped barley, 500 ppm PAA at higher pH (pH=9.0), given sufficient time (Example 4)): 2-3 Log10 | reduction of all microorganisms ([2]; steeped barley, 500 ppm PAA, 30 s (Example 4)): 2.0-4.5 Log10 | reduction in all microbial populations tested ([2]; steeped barley, 500 ppm PAA, 30 seconds, pH 3.1 and 9.0 (Example 1)): 1.5-2.1 Log10 | ECC Log10 (coliforms (ECC); [14]): 6.59 Log10 | ECC Log10 Reduction (coliforms (ECC); [14]): 1.67 Log10 | ECC Log10 (coliforms (ECC); [15]): 0.00* Log10 | ECC Log10 Reduction (coliforms (ECC); [15]): 3.25* Log10 | ECC Log10 (coliforms (ECC); [16]): 6.68 Log10 | ECC Log10 Reduction (coliforms (ECC); [16]): 1.58 Log10 | ECC Log10 (coliforms (ECC); [17]): 0.00* Log10 | ECC Log10 Reduction (coliforms (ECC); [17]): 3.25* Log10 | ECC Log10 (CFU/10 g barley grains) (coliforms (ECC); [18]): 6.83 Log10 | ECC Log10 Reduction (coliforms (ECC); [18]): 1.16 Log10 | ECC Log10 (CFU/10 g barley grains) (coliforms (ECC); [19]): 7.39 Log10 | ECC Log10 Reduction (coliforms (ECC); [19]): 0.60 Log10 | ECC Log10 (CFU/10 g barley grains) (coliforms (ECC); [20]): 5.99 Log10 | ECC Log10 Reduction (coliforms (ECC); [20]): 1.91 Log10 | ECC Log10 (coliforms (ECC); [21]): 5.94 Log10 | ECC Log10 Reduction (coliforms (ECC); [21]): 1.66 Log10 | ECC Log10 (coliforms (ECC); [22]): 5.26 Log10 | ECC Log10 Reduction (coliforms (ECC); [22]): 2.34 Log10 | ECC Log10 (coliforms (ECC); [23]): 5.48 Log10 | ECC Log10 Reduction (coliforms (ECC); [23]): 1.73 Log10 | ECC Log10 (coliforms (ECC); [4]): 4.78 Log10 | ECC Log10 Reduction (coliforms (ECC); [4]): 2.43 Log10 | ECC Log10 (CFU/10 g barley grains) (coliforms (ECC); [5]): 5.79 Log10 | ECC Log10 Reduction (coliforms (ECC); [5]): 2.11 Log10 | ECC Log10 (coliforms (ECC); [6]): 3.63 Log10 | ECC Log10 Reduction (coliforms (ECC); [6]): 3.57 Log10 | ECC Log10 (coliforms (ECC); [7]): 6.49 Log10 | ECC Log10 Reduction (coliforms (ECC); [7]): 1.11 Log10 | ECC Log10 (coliforms (ECC); [8]): 5.27 Log10 | ECC Log10 Reduction (coliforms (ECC); [8]): 2.33 Log10 | ECC Log10 (coliforms (ECC); [9]): 4.60 Log10 | ECC Log10 Reduction (coliforms (ECC); [9]): 2.60 Log10 | ECC Log10 (coliforms (ECC); [10]): 2.60 Log10 | ECC Log10 Reduction (coliforms (ECC); [10]): 4.60 Log10 | ECC Log10 (coliforms (ECC); [11]): 0.00 Log10 | ECC Log10 Reduction (coliforms (ECC); [11]): 4.36 Log10 | ECC Log10 (coliforms (ECC); [12]): 5.41 Log10 | ECC Log10 Reduction (coliforms (ECC); [12]): 1.8 Log10 and 1.82 Log10 | ECC Log10 (coliforms (ECC); [13]): 4.95 Log10 | ECC Log10 Reduction (coliforms (ECC); [13]): 2.28 Log10 | kill of ECC microorganisms (coliforms (ECC); unadjusted PAA 500 ppm, treated after germination): complete kill | kill of Fusarium [3]: complete kill
